Test results as given in PMC12747932, “Crystal structures of Kif2A complexed with WDR5 reveal the structural plasticity of WIN-S7 sites” (Acta Biochimica et Biophysica Sinica, 2025).

Target: T1, human WDR5 (residues 24–334) (Homo sapiens, UniProt P61964)
T1 construct: human WDR5 seven tandem WD-40 domain (residues 24–334); GST (N, cleaved yes); made in house; host or cells: Escherichia coli BL21 (DE3)
Assay: ITC assay of Kif2A peptides titrated into WDR5
Settings: wild-type WDR5 0.05 mM, peptide approx. 1 mM, 20 mM Tris-HCl, 200 mM NaCl, pH 7.5, 20°C, mean±SD of a minimum of two experiments, N.D. = not detectable binding
Text: The DNA fragment encoding the human WDR5 seven tandem WD-40 domain (residues 24–334) was amplified via PCR from the human brain and bone marrow cDNA library and cloned and inserted into the pGEX-4T1 vector, which was modified to include an N-terminal GST tag and a TEV cleavage site (ENLYFQ/GSHM) (where ‘/’ denotes the cleavage site). The Y191F variant of WDR5 was generated using a MutanBEST kit (TaKaRa, Dalian, China) and verified via DNA sequencing. Proteins were expressed in Escherichia coli BL21 (DE3) cells (Novagen, Darmstadt, Germany) cultured in Luria-Bertani medium at 37°C. Protein expression was induced with 0.2 mM isopropyl β-D-1-thiogalactopyranoside (IPTG) once the optical density at 600 nm (OD600) reached 0.8, and the cultures were shifted to 16°C for incubation for 18 h. The cells were harvested by centrifugation and resuspended in Buffer A (20 mM Tris-HCl, 1 M NaCl, pH 8.0) supplemented with DNase I (10 U) and cOmplete, EDTA-free Protease Inhibitor Cocktail (1 tablet dissolved in 1 mL of sterile water), after which they were lysed by ultrasonication. […]
ITC assays were performed on a Microcal PEAQ-ITC instrument (Malvern Panalytical, Westborough, USA) at 20°C as previously described. Protein concentrations were quantified by measuring the absorbance at 280 nm and diluted to 0.05 mM with Buffer E. Peptides were prepared at approximately 1 mM in the same buffer. […]

KD, dissociation constant: completely abolished binding
Sequence: GSAAARPSQ [Kif2A ^R117A, Kif2A 114–122 peptide with R117A mutation, …]
